Laboratory results reported in patent US20110306579A1, “METHODS OF NEUROPROTECTION USING NEUROPROTECTIVE STEROIDS AND A VITAMIN D” (EMORY UNIVERSITY, priority 2009, published 2011).

Tests used:
[1] = tested on: E18 rat primary cortical neurons; experiment: Glutamate-induced excitotoxic cell death (LDH release and MTT reduction assays); assay type: cell-based
Text: Lactate dehydrogenase (LDH) release and 3-(4,5-dimethylthiazol-2-yl)-2,5-diphenyltetrazolium bromide (MTT) reduction assays were used to measure cell death. NeuroPureTM E18 primary rat cortical cells were commercially procured (Catalogue # N200200, Genlantis, San Diego, Calif., USA) as micro-surgically dissected regions from day 18 embryonic Sprague-Dawley rat brain. The tissues were processed for culturing according to manufacturer specifications. Briefly, enzymatic pre-treatment of the tissue was done prior to mechanical dissociation by incubating the tissues in sterile NeuroPapain enzyme solution at 30° C. for 30 minutes. Following incubation, the cells were centrifuged and transferred to fresh plating medium, where they were then dissociated into isolated neurons using a P-1000 pipettor with a sterile 1 ml plastic tip (0.8-1.0 mm diameter opening). The cells were again centrifuged and seeded in multi-well plates pre-coated with poly-D-lysine (0.15 ml/cm^2, 50 μg/ml) and maintained at 37° C. in a humidified 5% CO2 atmosphere. All experiments were performed after 9-10 days in culture. Twenty-four hours before glutamate exposure, cultures were pre-treated with both PROG (Cat. #P3972; Sigma Aldrich, St. Louis, Mo., USA) and VDH(Cat. #D1530; Sigma) separately or in combination with VDH at various concentrations. Stock solutions of PROG and VDH were prepared in dimethylsulfoxide (DMSO; Cat. #D2650; […] Glutamate was diluted in phosphate-buffered saline (PBS, pH 7.4). All reagents were filter sterilized before being added to cultures. At Day 11, cortical neurons in fresh media were separated into five treatment groups: (i) control; (ii) 24 hour treatment with 0.5 μM glutamate (Sribnick E A, et al., (2004) J Neurosci Res 76: 688-696); ([…]) with subsequent exposure to glutamate for 24 hours; (iv) 24 hour pre-treatment with VDH (1, 5, 10, 20, 40, 80, 100 nM) with subsequent exposure to glutamate for 24 hours; (v) 24 hour pre-treatment with different combinations of PROG and […]: 20 μM+VDH: 1, 5, 10, 20, 40, 80, 100 nM) with subsequent exposure to glutamate for 24 hours. Two widely accepted assays (LDH release and MTT reduction assay) for the measurement of cell viability were used. These assays are considered very reliable and reproducible with high predictive validity and are widely used in various pharmacological studies ([…], et al., (2002) Endocrinology 143: 205-212.). The LDH assay was performed as follows. […] LDH activity was measured using a Cytotoxicity Detection Kit (Roche Molecular Biochemicals, Indianapolis, Ind., USA) and quantitated by measuring absorbance at 490 nm. Data were normalized against the amount of LDH activity released from vehicle-treated control cultures receiving no glutamate. Neuronal death was also assessed by MTT [3-(4,5-dimethylthiazol-2-yl)-2,5-diphenyltetrazolium bromide] assay, which is based on the cleavage of the tetrazolium ring of the pale yellow MTT into dark blue formazan crystals by mitochondrial dehydrogenase enzyme in viable cells. These blue formazan crystals accumulate within the cells due to their impermeability to cell membrane, and are then solubilized by adding DMSO. The intensity of blue colored formazan solution is directly proportional to the number of surviving cells. Concentrations were determined by photometric analysis. Briefly, 10 μl of MTT were added per well and incubated at 37° C. for 4 hours until purple precipitate was visible. DMSO (50 μl) was added to solubilize the crystals and the absorbance was read at 570 nm.

[2] = tested on: moderate to severe TBI patients; conditions: cited from earlier work

## CC(=O)[C@H]1CCC2C3CCC4=CC(=O)CC[C@]4(C)C3CC[C@@]21C (some centres unmarked) [progesterone]
[1]; LDH and MTT assays
  best (most effective) concentration alone against glutamate-induced neuronal death: 20 µM
[1]; PROG at higher concentrations (10, 20, 40, and 80 μM), LDH and MTT assays, P<0.001
  glutamate-induced cell death compared to vehicle-only group: significant reduction
[1]; PROG at lower concentrations (0.01, 0.1, 1, 5 μM), 24 h pre-treatment, glutamate 0.5 μM 24 h
  glutamate-induced cell death compared to vehicle-only group: did not show any decrease in cell death
[2]; 3 days of intravenous treatment, 100 patients
  reduction of mortality: over 60%
[2]; 30 days post-injury
  functional outcomes: significantly improved functional outcomes
